According to article PMC11277489, “Novel Piperazine Derivatives of Vindoline as Anticancer Agents” (International Journal of Molecular Sciences, 2024):

Key:
UACC-257 = experiment: NCI60 one-dose screen (10 μM), Melanoma; type: cell-based; conditions: Homo sapiens, UACC-257, read-out: Growth percent rate
NCI-H23 = experiment: NCI60 one-dose screen (10 μM), Non-small Cell Lung Cancer; type: cell-based; conditions: Homo sapiens, NCI-H23, read-out: Growth percent rate
SN12C = experiment: NCI60 one-dose screen (10 μM), Renal Cancer; type: cell-based; conditions: Homo sapiens, read-out: Growth percent rate
MCF7 = experiment: NCI60 one-dose screen (10 μM), Breast Cancer; type: cell-based; conditions: Homo sapiens, MCF7, read-out: Growth percent rate
ACHN = experiment: NCI60 one-dose screen (10 μM), Renal Cancer; type: cell-based; conditions: Homo sapiens, read-out: Growth percent rate
HOP-62 = experiment: NCI60 one-dose screen (10 μM), Non-small Cell Lung Cancer; type: cell-based; conditions: Homo sapiens, HOP-62, read-out: Growth percent rate
HS 578T = experiment: NCI60 one-dose screen (10 μM), Breast Cancer; type: cell-based; conditions: Homo sapiens, Hs-578T, read-out: Growth percent rate
TK-10 = experiment: NCI60 one-dose screen (10 μM), Renal Cancer; type: cell-based; conditions: Homo sapiens, TK-10, read-out: Growth percent rate
NCI-H460 = experiment: NCI60 one-dose screen (10 μM), Non-small Cell Lung Cancer; type: cell-based; conditions: Homo sapiens, NCI-H460, read-out: Growth percent rate
MOLT-4 = experiment: NCI60 one-dose screen (10 μM), Leukemia; type: cell-based, human; conditions: Homo sapiens, MOLT-4, read-out: Growth percent rate
MALME-3M = experiment: NCI60 one-dose screen (10 μM), Melanoma; type: cell-based; conditions: Homo sapiens, Malme-3M, read-out: Growth percent rate
SF-295 = experiment: NCI60 one-dose screen (10 μM), CNS Cancer; type: cell-based; conditions: Homo sapiens, SF-295, read-out: Growth percent rate
CAKI-1 = experiment: NCI60 one-dose screen (10 μM), Renal Cancer; type: cell-based; conditions: Homo sapiens, CAKI-1, read-out: Growth percent rate
LOX IMVI = experiment: NCI60 one-dose screen (10 μM), Melanoma; type: cell-based, human; conditions: Homo sapiens, LOX IMVI, read-out: Growth percent rate
HCT-116 = experiment: NCI60 one-dose screen (10 μM), Colon Cancer; type: cell-based; conditions: Homo sapiens, HCT-116, read-out: Growth percent rate
OVCAR-4 = experiment: NCI60 one-dose screen (10 μM), Ovarian Cancer; type: cell-based; conditions: Homo sapiens, OVCAR-4, read-out: Growth percent rate
RPMI-8226 = experiment: NCI60 one-dose screen (10 μM), Leukemia; type: cell-based; conditions: Homo sapiens, RPMI-8226, read-out: Growth percent rate
HCC-2998 = experiment: NCI60 one-dose screen (10 μM), Colon Cancer; type: cell-based; conditions: Homo sapiens, HCC 2998, read-out: Growth percent rate
SF-268 = experiment: NCI60 one-dose screen (10 μM), CNS Cancer; type: cell-based; conditions: Homo sapiens, SF-268, read-out: Growth percent rate
786–0 = experiment: NCI60 one-dose screen (10 μM), Renal Cancer; type: cell-based; conditions: Homo sapiens, 786-0, read-out: Growth percent rate
SNB-19 = experiment: NCI60 one-dose screen (10 μM), CNS Cancer; type: cell-based; conditions: Homo sapiens, SNB-19, read-out: Growth percent rate
A498 = experiment: NCI60 one-dose screen (10 μM), Renal Cancer; type: cell-based; conditions: Homo sapiens, A498, read-out: Growth percent rate
A549/ATCC = experiment: NCI60 one-dose screen (10 μM), Non-small Cell Lung Cancer; type: cell-based; conditions: Homo sapiens, A549, read-out: Growth percent rate
HL-60(TB) = experiment: NCI60 one-dose screen (10 μM), Leukemia; type: cell-based; conditions: Homo sapiens, HL-60, read-out: Growth percent rate
EKVX = experiment: NCI60 one-dose screen (10 μM), Non-small Cell Lung Cancer; type: cell-based; conditions: Homo sapiens, read-out: Growth percent rate
OVCAR-8 = experiment: NCI60 one-dose screen (10 μM), Ovarian Cancer; type: cell-based; conditions: Homo sapiens, OVCAR-8, read-out: Growth percent rate
SF-539 = experiment: NCI60 one-dose screen (10 μM), CNS Cancer; type: cell-based, human; conditions: Homo sapiens, SF-539, read-out: Growth percent rate
MDA-MB-435 = experiment: NCI60 one-dose screen (10 μM), Melanoma; type: cell-based; conditions: Homo sapiens, MDA-MB-435, read-out: Growth percent rate
NCI-H322M = experiment: NCI60 one-dose screen (10 μM), Non-small Cell Lung Cancer; type: cell-based; conditions: Homo sapiens, read-out: Growth percent rate
IGROV1 = experiment: NCI60 one-dose screen (10 μM), Ovarian Cancer; type: cell-based; conditions: Homo sapiens, IGROV-1, read-out: Growth percent rate
HT29 = experiment: NCI60 one-dose screen (10 μM), Colon Cancer; type: cell-based; conditions: Homo sapiens, HT-29, read-out: Growth percent rate
SW-620 = experiment: NCI60 one-dose screen (10 μM), Colon Cancer; type: cell-based; conditions: Homo sapiens, SW-620, read-out: Growth percent rate
COLO 205 = experiment: NCI60 one-dose screen (10 μM), Colon Cancer; type: cell-based, human; conditions: Homo sapiens, COLO 205, read-out: Growth percent rate
NCI-H522 = experiment: NCI60 one-dose screen (10 μM), Non-small Cell Lung Cancer; type: cell-based; conditions: Homo sapiens, NCI-H522, read-out: Growth percent rate
SK-MEL-5 = experiment: NCI60 one-dose screen (10 μM), Melanoma; type: cell-based, human; conditions: Homo sapiens, SK-MEL-5, read-out: Growth percent rate
SK-MEL-28 = experiment: NCI60 one-dose screen (10 μM), Melanoma; type: cell-based; conditions: Homo sapiens, SK-MEL-28, read-out: Growth percent rate
U251 = experiment: NCI60 one-dose screen (10 μM), CNS Cancer; type: cell-based; conditions: Homo sapiens, U-251, read-out: Growth percent rate
[1] = tested on: 60 human tumor cell lines (NCI60); experiment: NCI60 one-dose screen (10 μM), whole panel; type: cell-based; conditions: Homo sapiens, read-out: Growth percent rate, Mean
RXF 393 = experiment: NCI60 one-dose screen (10 μM), Renal Cancer; type: cell-based, human; conditions: Homo sapiens, RXF 393, read-out: Growth percent rate
K-562 = experiment: NCI60 one-dose screen (10 μM), Leukemia; type: cell-based; conditions: Homo sapiens, K562, read-out: Growth percent rate
M14 = experiment: NCI60 one-dose screen (10 μM), Melanoma; type: cell-based; conditions: Homo sapiens, M14, read-out: Growth percent rate
HCT-15 = experiment: NCI60 one-dose screen (10 μM), Colon Cancer; type: cell-based; conditions: Homo sapiens, HCT-15, read-out: Growth percent rate

SMILES: CC[C@]12C=CCN3CC[C@@]4(c5ccc(OC)cc5N(C)[C@H]4[C@@](O)(C(=O)OC)[C@@H]1OC(=O)CCC(=O)N1CCN(C(=O)c4ccco4)CC1)[C@@H]32 [Compound 32]
- activity at 10 µM (UACC-257): 61.7%
- activity at 10 µM (NCI-H23): 101%
- activity at 10 µM (SN12C): 94.4%
- activity at 10 µM (MCF7): 91.5%
- activity at 10 µM (ACHN): 103%
- activity at 10 µM (HOP-62): 96.2%
- activity at 10 µM (HS 578T): 103%
- activity at 10 µM (TK-10): 103%
- activity at 10 µM (NCI-H460): 107%
- activity at 10 µM (MOLT-4): 85.8%
- activity at 10 µM (MALME-3M): 82%
- activity at 10 µM (SF-295): 95.2%
- activity at 10 µM (CAKI-1): 78.4%
- activity at 10 µM (LOX IMVI): 97.8%
- activity at 10 µM (HCT-116): 119%
- activity at 10 µM (OVCAR-4): 98.1%
- activity at 10 µM (RPMI-8226): 99.4%
- activity at 10 µM (HCC-2998): 113%
- activity at 10 µM (SF-268): 92.2%
- activity at 10 µM (786–0): 104%
- activity at 10 µM (SNB-19): 91.2%
- activity at 10 µM (A498): 117%
- activity at 10 µM (A549/ATCC): 95.2%
- activity at 10 µM (HL-60(TB)): 90.9%
- activity at 10 µM (EKVX): 99.4%
- activity at 10 µM (OVCAR-8): 100%
- activity at 10 µM (SF-539): 98.8%
- activity at 10 µM (MDA-MB-435): 98.2%
- activity at 10 µM (NCI-H322M): 114%
- activity at 10 µM (IGROV1): 126%
- activity at 10 µM (HT29): 102%
- activity at 10 µM (SW-620): 117%
- activity at 10 µM (COLO 205): 45.8%
- activity at 10 µM (NCI-H522): 81.4%
- activity at 10 µM (SK-MEL-5): 83.8%
- activity at 10 µM (SK-MEL-28): 67.6%
- activity at 10 µM (U251): 97.4%
- activity at 10 µM [1]: 97.2%
- activity at 10 µM (RXF 393): 102%
- activity at 10 µM (K-562): 102%
- activity at 10 µM (M14): 88.3%
- activity at 10 µM (HCT-15): 100%
